The values below come from US11208412B2 (DAEGU-GYEONGBUK MEDICAL INNOVATION FOUNDATION, priority 2017, dated 2021).

Common to all, as to assay: Kinase selectivity, DiscoverX scanMAX Kinase assay panel (% control)
Holding throughout (assay type): binding

Test [1] addresses T1, kinases of the scanMAX Kinase assay panel (Homo sapiens, UniProt Q9BWU1).
T1 construct: purchased DiscoverX Co. (contract measurement) scanMAX Kinase assay panel
As to conditions: CDK11; 1 uM. Here is the method:
(§1) The following experiment was performed to evaluate the activity of the compounds of the present invention to inhibit many enzymes.
(§2) Particularly, the compounds of Examples 8, 64 and 104 were selected among all of those compounds of the invention. DiscoverX Co. was asked to measure the enzyme (kinase) selectivity, and the experiment was performed using scanMAX™ Kinase assay panel.
(§3) Wherein, the concentration of the drug treated to each enzyme was 1 uM in DMSO and the control percentage (% control) was determined by the following Equation 1. (example compound−positive control)/(negative control−positive control)×100 [Equation 1]
(§4) Herein, the positive control indicates the compound showing the % control of 0%, and the negative control indicates DMSO showing the % control of 100%. The enzyme selectivity in the present invention is defined as follows: When the % control for each enzyme is less than 35% (<35%), it is judged that the compound has the activity to the corresponding enzyme.

Test [2] has as its target T2, kinases of the scanMAX Kinase assay panel (Homo sapiens, UniProt Q9C098).
T2 construct: purchased DiscoverX Co. (contract measurement) scanMAX Kinase assay panel
The following applies: DCAMKL3; 1 uM. How it is done: as §1, §2, §3, §4

The target of test [3] is T3, kinases of the scanMAX Kinase assay panel (Homo sapiens, UniProt P36888, D835Y).
T3 construct: purchased DiscoverX Co. (contract measurement) scanMAX Kinase assay panel
T3 sequence (P36888 27-993 D835Y): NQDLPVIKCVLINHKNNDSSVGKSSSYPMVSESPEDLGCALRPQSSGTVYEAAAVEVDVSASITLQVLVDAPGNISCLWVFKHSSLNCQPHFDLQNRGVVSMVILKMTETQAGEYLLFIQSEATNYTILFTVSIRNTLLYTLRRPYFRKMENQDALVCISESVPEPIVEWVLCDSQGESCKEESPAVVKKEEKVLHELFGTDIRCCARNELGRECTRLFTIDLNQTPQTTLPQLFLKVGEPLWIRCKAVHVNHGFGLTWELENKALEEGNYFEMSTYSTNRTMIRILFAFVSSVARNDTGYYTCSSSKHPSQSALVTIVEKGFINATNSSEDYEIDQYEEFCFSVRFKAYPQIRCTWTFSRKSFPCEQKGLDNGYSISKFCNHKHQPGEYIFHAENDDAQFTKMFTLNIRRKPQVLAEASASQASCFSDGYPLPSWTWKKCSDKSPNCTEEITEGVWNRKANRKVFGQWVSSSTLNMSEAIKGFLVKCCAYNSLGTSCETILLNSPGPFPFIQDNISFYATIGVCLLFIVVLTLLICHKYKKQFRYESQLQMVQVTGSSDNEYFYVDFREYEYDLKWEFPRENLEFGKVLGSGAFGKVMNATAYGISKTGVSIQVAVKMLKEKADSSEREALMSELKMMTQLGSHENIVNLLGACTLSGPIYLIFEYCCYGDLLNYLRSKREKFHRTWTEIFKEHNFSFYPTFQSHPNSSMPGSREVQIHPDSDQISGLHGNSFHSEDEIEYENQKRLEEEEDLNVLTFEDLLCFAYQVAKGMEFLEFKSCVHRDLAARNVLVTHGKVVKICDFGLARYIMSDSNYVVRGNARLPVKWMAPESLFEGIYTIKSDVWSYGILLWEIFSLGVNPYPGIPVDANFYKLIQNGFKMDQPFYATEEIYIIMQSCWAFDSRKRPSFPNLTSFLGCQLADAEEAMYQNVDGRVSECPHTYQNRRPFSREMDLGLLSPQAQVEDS
As to conditions: FLT3(D835Y); 1 uM. Here is the method:
as §1, §2, §3, §4

For test [4], the target named is T4, kinases of the scanMAX Kinase assay panel (Homo sapiens, UniProt Q12851).
T4 construct: purchased DiscoverX Co. (contract measurement) scanMAX Kinase assay panel
T4 sequence (Q12851 1-820): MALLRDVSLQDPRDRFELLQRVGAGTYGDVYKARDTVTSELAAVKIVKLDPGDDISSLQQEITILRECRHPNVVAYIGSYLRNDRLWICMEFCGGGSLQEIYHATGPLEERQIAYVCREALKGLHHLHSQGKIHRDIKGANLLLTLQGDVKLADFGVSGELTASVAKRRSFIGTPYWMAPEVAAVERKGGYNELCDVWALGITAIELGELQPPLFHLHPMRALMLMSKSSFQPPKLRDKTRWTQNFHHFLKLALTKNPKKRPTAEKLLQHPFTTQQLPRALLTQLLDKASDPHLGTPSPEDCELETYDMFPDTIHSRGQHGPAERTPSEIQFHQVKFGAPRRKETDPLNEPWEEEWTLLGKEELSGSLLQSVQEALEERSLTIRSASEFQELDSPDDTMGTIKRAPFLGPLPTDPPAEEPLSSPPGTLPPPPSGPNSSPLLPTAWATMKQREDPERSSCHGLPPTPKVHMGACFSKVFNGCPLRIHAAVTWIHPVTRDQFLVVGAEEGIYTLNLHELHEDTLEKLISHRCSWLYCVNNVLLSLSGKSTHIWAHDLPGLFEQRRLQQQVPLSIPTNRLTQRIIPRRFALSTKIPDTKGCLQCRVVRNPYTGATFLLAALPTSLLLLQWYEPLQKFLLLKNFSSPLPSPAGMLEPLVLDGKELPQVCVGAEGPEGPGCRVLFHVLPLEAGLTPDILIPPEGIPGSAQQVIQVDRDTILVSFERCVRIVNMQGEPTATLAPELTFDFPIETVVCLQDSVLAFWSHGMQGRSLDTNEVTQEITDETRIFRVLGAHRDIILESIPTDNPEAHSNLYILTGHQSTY
As to conditions: MAP4K2; 1 uM. How it is done:
as §1, §2, §3, §4

Test [5] concerns the target T5, kinases of the scanMAX Kinase assay panel (Homo sapiens, UniProt O94921).
T5 construct: purchased DiscoverX Co. (contract measurement) scanMAX Kinase assay panel
As to conditions: PFTK1; 1 uM. Here is the method: as §1, §2, §3, §4

Test [6] deals with T6, kinases of the scanMAX Kinase assay panel (Homo sapiens, UniProt P31749).
T6 construct: purchased DiscoverX Co. (contract measurement) scanMAX Kinase assay panel
T6 sequence (P31749 whole entry): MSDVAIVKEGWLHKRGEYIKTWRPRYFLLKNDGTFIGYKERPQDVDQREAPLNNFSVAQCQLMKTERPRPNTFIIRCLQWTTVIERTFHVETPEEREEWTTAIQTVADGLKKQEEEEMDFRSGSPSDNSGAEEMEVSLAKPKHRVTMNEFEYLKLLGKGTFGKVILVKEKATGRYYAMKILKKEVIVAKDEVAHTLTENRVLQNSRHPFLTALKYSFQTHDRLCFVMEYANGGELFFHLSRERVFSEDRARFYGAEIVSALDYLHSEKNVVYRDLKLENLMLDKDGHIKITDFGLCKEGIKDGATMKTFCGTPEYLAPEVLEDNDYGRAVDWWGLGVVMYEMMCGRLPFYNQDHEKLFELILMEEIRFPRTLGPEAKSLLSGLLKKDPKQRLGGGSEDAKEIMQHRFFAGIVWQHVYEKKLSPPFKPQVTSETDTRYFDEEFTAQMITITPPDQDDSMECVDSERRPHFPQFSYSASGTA
The following applies: AKT1; 1 uM. Here is the method:
as §1, §2, §3, §4

For test [7], the target named is T7, kinases of the scanMAX Kinase assay panel (Homo sapiens, UniProt P00519, Q252H).
T7 construct: purchased DiscoverX Co. (contract measurement) scanMAX Kinase assay panel
As to conditions: 1 uM. How it is done:
as §1, §2, §3, §4

The target of test [8] is T8, kinases of the scanMAX Kinase assay panel (Homo sapiens, UniProt Q15418).
T8 construct: purchased DiscoverX Co. (contract measurement) scanMAX Kinase assay panel
T8 sequence (Q15418 whole entry): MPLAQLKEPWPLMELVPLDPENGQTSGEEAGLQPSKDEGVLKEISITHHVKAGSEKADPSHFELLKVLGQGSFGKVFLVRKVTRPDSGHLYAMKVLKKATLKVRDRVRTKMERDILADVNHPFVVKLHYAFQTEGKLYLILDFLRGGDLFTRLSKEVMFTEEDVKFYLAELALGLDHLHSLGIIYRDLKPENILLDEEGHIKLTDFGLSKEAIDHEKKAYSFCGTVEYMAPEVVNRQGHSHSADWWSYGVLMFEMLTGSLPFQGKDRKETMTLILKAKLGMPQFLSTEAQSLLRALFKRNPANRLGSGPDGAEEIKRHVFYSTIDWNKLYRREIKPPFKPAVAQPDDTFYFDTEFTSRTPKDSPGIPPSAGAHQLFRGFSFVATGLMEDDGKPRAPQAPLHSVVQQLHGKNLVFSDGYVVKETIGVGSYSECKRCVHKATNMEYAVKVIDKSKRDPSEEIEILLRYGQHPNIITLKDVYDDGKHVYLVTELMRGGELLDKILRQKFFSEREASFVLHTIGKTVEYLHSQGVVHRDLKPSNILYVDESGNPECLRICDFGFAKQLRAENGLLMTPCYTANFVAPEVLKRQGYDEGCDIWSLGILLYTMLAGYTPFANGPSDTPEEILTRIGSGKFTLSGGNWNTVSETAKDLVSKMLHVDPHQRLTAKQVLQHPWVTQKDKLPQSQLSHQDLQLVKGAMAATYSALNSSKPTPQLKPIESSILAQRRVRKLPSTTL
The following applies: 1 uM in DMSO. Here is the method:
as §1, §2, §3, §4

The mark [9] stands for this setting: kinase RSK1(Kin.Dom.1-N-terminal), read-out: % control, RSK1(Kin.Dom.1-N-terminal).
The mark [10] stands for this setting: kinase RSK1(Kin.Dom.2-C-terminal), read-out: % control, RSK1(Kin.Dom.2-C-terminal).

SMILES strings stand for the structures. Like-named read-outs stand apart in the source and are kept apart here.

T5 sequence (O94921 whole entry): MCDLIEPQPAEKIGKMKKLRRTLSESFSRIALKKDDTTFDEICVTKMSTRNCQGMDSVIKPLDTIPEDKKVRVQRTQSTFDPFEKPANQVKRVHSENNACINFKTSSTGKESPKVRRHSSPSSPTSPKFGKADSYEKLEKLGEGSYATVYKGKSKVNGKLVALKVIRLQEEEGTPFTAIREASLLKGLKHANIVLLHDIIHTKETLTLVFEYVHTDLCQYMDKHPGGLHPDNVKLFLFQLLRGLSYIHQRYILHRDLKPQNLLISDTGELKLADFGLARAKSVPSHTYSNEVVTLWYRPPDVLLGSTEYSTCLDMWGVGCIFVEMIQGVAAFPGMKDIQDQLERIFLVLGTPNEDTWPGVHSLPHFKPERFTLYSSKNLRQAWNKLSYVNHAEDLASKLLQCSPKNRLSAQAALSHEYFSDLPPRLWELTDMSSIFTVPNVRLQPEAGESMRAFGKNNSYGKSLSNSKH
T2 sequence (Q9C098 whole entry): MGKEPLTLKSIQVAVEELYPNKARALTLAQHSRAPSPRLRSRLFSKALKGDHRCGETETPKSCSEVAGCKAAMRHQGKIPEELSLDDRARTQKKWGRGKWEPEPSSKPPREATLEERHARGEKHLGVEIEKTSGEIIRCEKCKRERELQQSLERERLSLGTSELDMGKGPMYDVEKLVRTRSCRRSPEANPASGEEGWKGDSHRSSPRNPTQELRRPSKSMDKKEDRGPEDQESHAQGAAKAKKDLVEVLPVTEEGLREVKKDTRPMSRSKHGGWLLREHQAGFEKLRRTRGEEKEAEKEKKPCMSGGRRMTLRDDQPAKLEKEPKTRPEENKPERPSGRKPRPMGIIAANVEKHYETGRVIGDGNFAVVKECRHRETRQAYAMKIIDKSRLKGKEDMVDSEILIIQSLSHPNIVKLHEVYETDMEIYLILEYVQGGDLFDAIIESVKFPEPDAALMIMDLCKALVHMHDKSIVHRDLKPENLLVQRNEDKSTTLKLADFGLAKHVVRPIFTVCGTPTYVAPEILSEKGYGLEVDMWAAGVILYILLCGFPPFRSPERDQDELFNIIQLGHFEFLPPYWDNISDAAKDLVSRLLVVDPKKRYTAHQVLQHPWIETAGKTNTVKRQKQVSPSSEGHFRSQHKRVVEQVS
T1 sequence (Q9BWU1 whole entry): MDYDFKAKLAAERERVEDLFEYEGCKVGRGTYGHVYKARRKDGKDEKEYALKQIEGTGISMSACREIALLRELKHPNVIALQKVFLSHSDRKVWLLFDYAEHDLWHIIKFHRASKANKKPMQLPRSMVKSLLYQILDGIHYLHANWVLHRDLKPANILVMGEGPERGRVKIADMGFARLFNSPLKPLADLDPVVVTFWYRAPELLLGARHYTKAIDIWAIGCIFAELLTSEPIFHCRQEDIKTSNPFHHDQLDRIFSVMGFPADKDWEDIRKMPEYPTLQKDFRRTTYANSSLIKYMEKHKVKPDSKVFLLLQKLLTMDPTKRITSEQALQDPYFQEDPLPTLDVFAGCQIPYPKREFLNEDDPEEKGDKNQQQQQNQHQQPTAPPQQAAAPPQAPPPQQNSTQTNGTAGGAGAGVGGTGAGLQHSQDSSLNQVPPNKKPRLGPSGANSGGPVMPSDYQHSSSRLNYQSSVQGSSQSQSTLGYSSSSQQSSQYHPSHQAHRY

With `CNc1nc(Nc2ccc(C(=O)N3CCOCC3)cc2OC)nc2[nH]cc(C#N)c12` [Example 1, 2-((2-methoxy-4-(morpholine-4-carbonyl)phenyl)amino)-4-(methylamino)-7H-pyrrolo[2,3-d]pyrimidine-5-carbonitrile], the remaining binding at 1 µM was found to be 87% in test [1]; 98% in test [2]; 82% in test [3]; 75% in test [4]; 97% in test [5]; 83% in test [6]. Also, the remaining binding at 1 µM in test [7] (ABL1(Q252H)-nonphosphorylated) stood at 57%; in test [7] (ABL1(Q252H)-phosphorylated), 100%; in test [8] (setting [9]), 98%; in test [8] (setting [10]), 59%.

In the case of `CC1(Nc2nc(Nc3cnn([C@H]4CCN(C5COC5)C[C@@H]4F)c3Cl)nc3[nH]cc(C#N)c23)CC1` [Example 52, 2-((5-chloro-1-((3S,4S)-3-fluoro-1-(oxetane-3-yl)piperidine-4-yl)-1H-pyrazole-4-yl)amino)((1-methylcyclopropyl)amino)-7H-pyrrolo[2,3-d]pyrimidine-5-carbonitrile], the remaining binding at 1 µM in test [1] came to 100%; in test [2], 91%; in test [3], 0%; in test [4], 1.2%; in test [5] it was 100%; in test [6] it was 100%. In addition, the remaining binding at 1 µM in test [7] (ABL1(Q252H)-nonphosphorylated) is 1.1%; in test [7] (ABL1(Q252H)-phosphorylated), 0.25%; in test [8] (setting [9]) it was 2.4%; in test [8] (setting [10]) it was 52%.

For `CCNc1nc(Nc2ccc(C(=O)N3CCC(N4CCOCC4)CC3)cc2OC)nc2[nH]cc(C(F)(F)F)c12` [Example 104, (4-((4-(ethylamino)-5-(trifluoromethyl)-7H-pyrrolo[2,3-d]pyrimidine-2-yl)amino)-3-methoxyphenyl)(4-morpholinopiperidine-1-yl)methanone], the remaining binding at 1 µM in test [1] was 96%; in test [2], 90%; in test [3] it was 14%; in test [4] it was 69%; in test [5], 96%; in test [6], 100%. In addition, the remaining binding at 1 µM in test [7] (ABL1(Q252H)-nonphosphorylated) was found to be 99%; in test [7] (ABL1(Q252H)-phosphorylated), 82%; in test [8] (setting [9]) it was 89%; in test [8] (setting [10]) it was 61%.
